Activity calls are given as the source filed them. The rule behind the calls is not given here.
What was measured:
RPMI-8226 [1] = assay: Antiproliferative activity against human RPMI8226 cells assessed as inhibition of cell proliferation at 125 uM incubated for 72 hrs by CCK8 assay; assay type: functional
RPMI-8226 [2] = assay: cells; settings: Homo sapiens, RPMI-8226, 72 h
Description: Antiproliferative activity against human RPMI-8226 cells assessed as inhibition of cell proliferation incubated for 72 hrs by CCK8 assay

RPMI-8226 [3] = assay: Induction of apoptosis in human RPMI8226 cells assessed as viable cells at 1 uM measured after 36 hrs by Annexin V-FITC based flow cytometry (reference value: 91.68%); assay type: functional; settings: read-out: Activity
RPMI-8226 [4] = assay: Induction of apoptosis in human RPMI8226 cells assessed as early apoptotic cells at 1 uM measured after 36 hrs by Annexin V-FITC based flow cytometry (reference value: 7.48%); assay type: functional
RPMI-8226 [5] = assay: Induction of apoptosis in human RPMI8226 cells assessed as late apoptotic cells at 1 uM measured after 36 hrs by Annexin V-FITC based flow cytometry (reference value: 0.81%); assay type: functional
RPMI-8226 [6] = assay: Induction of apoptosis in human RPMI8226 cells assessed as necrotic cells at 1 uM measured after 36 hrs by Annexin V-FITC based flow cytometry (reference value: 0.03%); assay type: functional
RPMI-8226 [7] = assay: Induction of apoptosis in human RPMI8226 cells assessed as viable cells at 2 uM measured after 36 hrs by Annexin V-FITC based flow cytometry (reference value: 91.68%); assay type: functional; settings: read-out: Activity
RPMI-8226 [8] = assay: Induction of apoptosis in human RPMI8226 cells assessed as early apoptotic cells at 2 uM measured after 36 hrs by Annexin V-FITC based flow cytometry (reference value: 7.48%); assay type: functional
RPMI-8226 [9] = assay: Induction of apoptosis in human RPMI8226 cells assessed as late apoptotic cells at 2 uM measured after 36 hrs by Annexin V-FITC based flow cytometry (reference value: 0.81%); assay type: functional
RPMI-8226 [10] = assay: Induction of apoptosis in human RPMI8226 cells assessed as necrotic cells at 2 uM measured after 36 hrs by Annexin V-FITC based flow cytometry (reference value: 0.03%); assay type: functional
RPMI-8226 [11] = assay: Induction of apoptosis in human RPMI8226 cells assessed as viable cells at 4 uM measured after 36 hrs by Annexin V-FITC based flow cytometry (reference value: 91.68%); assay type: functional; settings: read-out: Activity
RPMI-8226 [12] = assay: Induction of apoptosis in human RPMI8226 cells assessed as early apoptotic cells at 4 uM measured after 36 hrs by Annexin V-FITC based flow cytometry (reference value: 7.48%); assay type: functional
RPMI-8226 [13] = assay: Induction of apoptosis in human RPMI8226 cells assessed as late apoptotic cells at 4 uM measured after 36 hrs by Annexin V-FITC based flow cytometry (reference value: 0.81%); assay type: functional
RPMI-8226 [14] = assay: Induction of apoptosis in human RPMI8226 cells assessed as necrotic cells at 4 uM measured after 36 hrs by Annexin V-FITC based flow cytometry (reference value: 0.03%); assay type: functional
RPMI-8226 [15] = assay: Cell cycle arrest in human RPMI8226 cells assessed as accumulation of cells at G1 phase at 1 uM measured after 36 hrs by flow cytometry (reference value: 22.95%); assay type: functional
RPMI-8226 [16] = assay: Cell cycle arrest in human RPMI8226 cells assessed as accumulation of cells at G2 phase at 1 uM measured after 36 hrs by flow cytometry (reference value: 27.03%); assay type: functional
RPMI-8226 [17] = assay: Cell cycle arrest in human RPMI8226 cells assessed as accumulation of cells at S phase at 1 uM measured after 36 hrs by flow cytometry (reference value: 50.02%); assay type: functional
RPMI-8226 [18] = assay: Cell cycle arrest in human RPMI8226 cells assessed as accumulation of cells at G1 phase at 2 uM measured after 36 hrs by flow cytometry (reference value: 22.95%); assay type: functional
RPMI-8226 [19] = assay: Cell cycle arrest in human RPMI8226 cells assessed as accumulation of cells at G2 phase at 2 uM measured after 36 hrs by flow cytometry (reference value: 27.03%); assay type: functional
RPMI-8226 [20] = assay: Cell cycle arrest in human RPMI8226 cells assessed as accumulation of cells at S phase at 2 uM measured after 36 hrs by flow cytometry (reference value: 50.02%); assay type: functional
RPMI-8226 [21] = assay: Cell cycle arrest in human RPMI8226 cells assessed as accumulation of cells at G1 phase at 4 uM measured after 36 hrs by flow cytometry (reference value: 22.95%); assay type: functional
RPMI-8226 [22] = assay: Cell cycle arrest in human RPMI8226 cells assessed as accumulation of cells at G2 phase at 4 uM measured after 36 hrs by flow cytometry (reference value: 27.03%); assay type: functional
RPMI-8226 [23] = assay: Cell cycle arrest in human RPMI8226 cells assessed as accumulation of cells at S phase at 4 uM measured after 36 hrs by flow cytometry (reference value: 50.02%); assay type: functional
RPMI-8226 [24] = assay: Reduction in DEPTOR mRNA expression in human RPMI8226 cells by quantitative PCR analysis relative to control; assay type: functional, cell-based; settings: dose 1-4 µM
RPMI-8226 [25] = assay: Reduction in DEPTOR protein expression in human RPMI8226 cells incubated for 24 hrs by Western blot analysis; assay type: functional, cell-based; settings: dose 1-4 µM
RPMI-8226 [26] = assay: Antitumor activity against human RPMI8226 cells xenografted in BALB/c mouse assessed as tumor growth inhibition at 100 mg/kg, po once a day for 3 weeks relative to control; assay type: functional; settings: RPMI-8226, po, 504 h, read-out: TGI
RPMI-8226 [27] = assay: Antitumor activity against human RPMI8226 cells xenografted in BALB/c mouse assessed as tumor growth inhibition at 200 mg/kg, po once a day for 3 weeks relative to control; assay type: functional; settings: RPMI-8226, po, 504 h, read-out: TGI
RPMI-8226 [28] = assay: Antitumor activity against human RPMI8226 cells xenografted in BALB/c mouse assessed as reduction in tumor weight at 100 to 200 mg/kg, po once a day for 3 weeks; assay type: functional, organism-based; settings: dose 100-200 mg/kg
[29] = Toxicity in BALB/c mouse xenografted with human RPMI8226 cells assessed as change in body weight at 100 to 200 mg/kg, po once a day for 3 weeks; assay type: organism-based, RPMI-8226; settings: in vivo, 504 h, dose 100-200 mg/kg
NCI-H460 = assay: cells; settings: Homo sapiens, NCI-H460, 72 h
Description: Antiproliferative activity against human NCI-H460 cells assessed as inhibition of cell proliferation incubated for 72 hrs by CCK8 assay

SiHa = assay: cells; settings: Homo sapiens, 72 h
Description: Antiproliferative activity against human SiHa cells assessed as inhibition of cell proliferation incubated for 72 hrs by CCK8 assay

U-266 = assay: cells; settings: Homo sapiens, U-266, 72 h
Description: Antiproliferative activity against human U266 cells assessed as inhibition of cell proliferation incubated for 72 hrs by CCK8 assay

MOLT-4 = assay: cells; settings: Homo sapiens, MOLT-4, 72 h
Description: Antiproliferative activity against human MOLT-4 cells assessed as inhibition of cell proliferation incubated for 72 hrs by CCK8 assay

HL-60 = assay: cells; settings: Homo sapiens, HL-60, 72 h
Description: Antiproliferative activity against human HL-60 cells assessed as inhibition of cell proliferation incubated for 72 hrs by CCK8 assay

MCF7 = assay: cells; settings: Homo sapiens, MCF7, 72 h
Description: Antiproliferative activity against human MCF7 cells assessed as inhibition of cell proliferation incubated for 72 hrs by CCK8 assay

MGC-803 = assay: cells; settings: Homo sapiens, MGC-803, 72 h
Description: Antiproliferative activity against human MGC-803 cells assessed as inhibition of cell proliferation incubated for 72 hrs by CCK8 assay

HepG2 = assay: cells; settings: Homo sapiens, HepG2, 72 h
Description: Antiproliferative activity against human HepG2 cells assessed as inhibition of cell proliferation incubated for 72 hrs by CCK8 assay

U2OS = assay: cells; settings: Homo sapiens, 72 h
Description: Antiproliferative activity against human U2OS cells assessed as inhibition of cell proliferation incubated for 72 hrs by CCK8 assay

DLD-1 = assay: cells; settings: Homo sapiens, DLD-1, 72 h
Description: Antiproliferative activity against human DLD1 cells assessed as inhibition of cell proliferation incubated for 72 hrs by CCK8 assay

U-251 = assay: cells; settings: Homo sapiens, U-251, 72 h
Description: Antiproliferative activity against human U251 cells assessed as inhibition of cell proliferation incubated for 72 hrs by CCK8 assay

RPMI-8226 [30] = assay: Antiproliferative activity against human RPMI8226 cells assessed as inhibition of cell proliferation at 250 uM incubated for 72 hrs by CCK8 assay; assay type: functional

SMILES: COc1ccc(-c2oc3c(CNCC4CCOCC4)c(O)ccc3c(=O)c2O)c(OC)c1
- inhibition at 125 µM (RPMI-8226 [1]): 16%

SMILES: O=C(O)[C@@H]1CCCN1Cc1c(O)ccc2c(=O)c(O)c(-c3cccc(Cl)c3Cl)oc12
- inhibition at 125 µM (RPMI-8226 [1]): 49%

SMILES: O=c1c(O)c(-c2ccncc2)oc2c3c(ccc12)OCN(Cc1ccc(Cl)c(Cl)c1)C3
- IC50 (RPMI-8226 [2]): 27.6 µM

SMILES: CN1CCC(N2COc3ccc4c(=O)c(O)c(-c5cccc(Cl)c5Cl)oc4c3C2)CC1
- IC50 (RPMI-8226 [2]): 4.29 µM

SMILES: CCN(CC)Cc1c(O)ccc2c(=O)c(O)c(-c3ccc(OC)cc3OC)oc12
- inhibition at 125 µM (RPMI-8226 [1]): 25%

SMILES: COc1ccc(-c2oc3c(CNCc4ccccc4)c(O)ccc3c(=O)c2O)c(OC)c1
- IC50 (RPMI-8226 [2]): 14.9 µM

SMILES: CCN(CC)Cc1c(O)ccc2c(=O)c(O)c(-c3cccc(Cl)c3Cl)oc12
- IC50 (RPMI-8226 [2]): 60.4 µM

SMILES: O=c1c(O)c(-c2ccc(Cl)c(Cl)c2)oc2c(CN3CCOCC3)c(O)ccc12
- IC50 (RPMI-8226 [2]): 4.03 µM

SMILES: COc1ccc(-c2oc3c(CNCc4ccncc4)c(O)ccc3c(=O)c2O)c(OC)c1
- IC50 (RPMI-8226 [2]): 56.6 µM

SMILES: COc1ccc(-c2oc3c4c(ccc3c(=O)c2O)OCN(NCc2ccc(Cl)c(Cl)c2)C4)c(OC)c1
- inhibition at 125 µM (RPMI-8226 [1]): 36%

SMILES: COc1ccc(-c2oc3c(CNC(Cc4ccccc4)C(=O)O)c(O)ccc3c(=O)c2O)c(OC)c1 (stereo not given)
- inhibition at 125 µM (RPMI-8226 [1]): 30%

SMILES: O=c1c(O)c(-c2ccc(Cl)c(Cl)c2)oc2c3c(ccc12)OCN(Cc1cccc(F)c1)C3
- viability at 1 µM (RPMI-8226 [3]): 65%
- Activity (RPMI-8226 [4]): 24.26%
- Activity (RPMI-8226 [5]): 9.16%
- Activity (RPMI-8226 [6]): 1.55%
- viability at 2 µM (RPMI-8226 [7]): 29.4%
- Activity (RPMI-8226 [8]): 53.44%
- Activity (RPMI-8226 [9]): 16.6%
- Activity (RPMI-8226 [10]): 0.54%
- viability at 4 µM (RPMI-8226 [11]): 13.9%
- Activity (RPMI-8226 [12]): 60.59%
- Activity (RPMI-8226 [13]): 25.18%
- Activity (RPMI-8226 [14]): 0.28%
- Activity (RPMI-8226 [15]): 22.33%
- Activity (RPMI-8226 [16]): 25.91%
- Activity (RPMI-8226 [17]): 51.75%
- Activity (RPMI-8226 [18]): 18.17%
- Activity (RPMI-8226 [19]): 26.33%
- Activity (RPMI-8226 [20]): 55.5%
- Activity (RPMI-8226 [21]): 22.38%
- Activity (RPMI-8226 [22]): 15.01%
- Activity (RPMI-8226 [23]): 62.51%
- Activity (RPMI-8226 [24]): Dose-Dependent Effect
- Activity (RPMI-8226 [25]): Dose-Dependent Effect
- inhibition in vivo at 100 mg/kg (RPMI-8226 [26]): 45.4%
- inhibition in vivo at 200 mg/kg (RPMI-8226 [27]): 61.1%
- Activity (RPMI-8226 [28]): Active
- Activity [29]: Non-Toxic
- IC50 (NCI-H460): > 10 µM
- IC50 (SiHa): > 10 µM
- IC50 (RPMI-8226 [2]): 1.09 µM
- IC50 (U-266): 1.11 µM
- IC50 (MOLT-4): 7.02 µM
- IC50 (HL-60): 6.6 µM
- IC50 (MCF7): 8.68 µM
- IC50 (MGC-803): > 10 µM
- IC50 (HepG2): > 10 µM
- IC50 (U2OS): > 10 µM
- IC50 (DLD-1): 10 µM
- IC50 (U-251): > 10 µM

SMILES: O=c1c(O)c(-c2cccc(Cl)c2Cl)oc2c(CN3CCCC3)c(O)ccc12
- IC50 (RPMI-8226 [2]): 42.8 µM

SMILES: O=c1c(O)c(-c2ccc(Cl)c(Cl)c2)oc2c3c(ccc12)OCN(Cc1ccncc1)C3
- IC50 (RPMI-8226 [2]): 5.9 µM

SMILES: COc1ccc(-c2oc3c(CC=C(C)C)c(O)cc(O)c3c(=O)c2O)cc1 [ICARITIN]
- IC50 (RPMI-8226 [2]): 20.8 µM

SMILES: COc1ccc(-c2oc3c(CN4CCOCC4)c(O)ccc3c(=O)c2O)c(OC)c1
- inhibition at 125 µM (RPMI-8226 [1]): 25%

SMILES: O=c1c(O)c(-c2cccc(Cl)c2Cl)oc2c(CN3CCOCC3)c(O)ccc12
- IC50 (RPMI-8226 [2]): 29.8 µM

SMILES: COc1ccc(-c2oc3c(CNCc4cccc(F)c4)c(O)ccc3c(=O)c2O)c(OC)c1
- inhibition at 125 µM (RPMI-8226 [1]): 19%

SMILES: COc1ccc(-c2oc3c4c(ccc3c(=O)c2O)OCN(C2CCN(C)CC2)C4)c(OC)c1
- IC50 (RPMI-8226 [2]): 44.8 µM

SMILES: COc1ccc(-c2oc3c(CN4CCCC4)c(O)ccc3c(=O)c2O)c(OC)c1
- inhibition at 250 µM (RPMI-8226 [30]): 53%

SMILES: COc1ccc(-c2oc3c(CNCC(=O)O)c(O)ccc3c(=O)c2O)c(OC)c1
- IC50 (RPMI-8226 [2]): 66.2 µM

SMILES: O=c1c(O)c(-c2ccc(Cl)c(Cl)c2)oc2c3c(ccc12)OCN(CC1CCOCC1)C3
- IC50 (RPMI-8226 [2]): 4.81 µM

Source: ChEMBL document CHEMBL4831542, “Design, Synthesis, and Biological Evaluation of Icaritin Derivatives as Novel Putative DEPTOR Inhibitors for Multiple Myeloma Treatment” (J Med Chem, 2021)
